This experiment is described as follows: HBV Replication Inhibition Assay: HBV replication inhibition by the compounds of this invention could be determined in cells infected or transfected with HBV, or cells with stably integrated HBV, such as HepG2.2.15 cells (Sells et al. 1987). In this example, HepG2.2.15 cells were maintained in cell culture medium containing 10% fetal bovine serum (FBS), Geneticin, L-glutamine, penicillin and streptomycin. HepG2.2.15 cells could be seeded in 96-well plates at a density of 40,000 cells/well and be treated with serially diluted compounds at a final DMSO concentration of 0.5% either alone or in combination by adding drugs in a checker box format. Cells were incubated with compounds for three days, after which medium was removed and fresh medium containing compounds was added to cells and incubated for another three days. At day 6, supernatant was removed and treated with DNase at 37° C. for 60 minutes, followed by enzyme inactivation at 75° C. for 15 minutes. Encapsidated HBV DNA was released from the virions and covalently linked HBV polymerase by incubating in lysis buffer (Affymetrix QS0010) containing 2.5 μg proteinase K at 50° C. for 40 minutes. HBV DNA was denatured by addition of 0.2 M NaOH and detected using a branched DNA (BDNA) QuantiGene assay kit according to manufacturer recommendation (Affymetrix). HBV DNA levels could also be quantified using qPCR, based on amplification of encapsidated HBV DNA extraction with QuickExtraction Solution (Epicentre Biotechnologies) and amplification of HBV DNA using HBV specific PCR probes that can hybridize to HBV DNA and a fluorescently labeled probe for quantitation. In addition, cell viability of HepG2.2.15 cells incubated with test compounds alone or in combination was determined by using CellTitre-Glo reagent according to the manufacturer protocol (Promega). The mean background signal from wells containing only culture medium was subtracted from all other samples, and percent inhibition at each compound concentration was calculated by normalizing to signals from HepG2.2.15 cells treated with 0.5% DMSO using equation E1.% inhibition=(DMSOave−Xi)/DMSOave×100% E1:where DMSOave is the mean signal calculated from the wells that were treated with DMSO control (0% inhibition control) and Xi is the signal measured from the individual wells. EC50 values, effective concentrations that achieved 50% inhibitory effect, were determined by non-linear fitting using Graphpad Prism software (San Diego, Calif.) and equation E2Y=Y min+(Y max−Y min)/(1+10(Log EC50−X)×HillSlope) E2:where Y represents percent inhibition values and X represents the logarithm of compound concentrations.

As usually defined, the EC50 is the midpoint of the concentration-response curve. With `Cc1cccc(NC(=O)N2Cc3c(C4CCCC4)n[nH]c3CC2C)c1` (centres undefined), the concentration giving a half-maximal response (EC50) entry was “in the range around 55 nM”. Further, the EC50 entry (HepG2.2.15) was “in the range around 55 nM”. As to `O=C(Nc1ccc(F)c(F)c1)N1CCc2[nH]nc(C3CCC3)c2C1`, the EC50 result (HepG2.2.15) was “in the range around 300 nM”. Consider `O=C(Nc1ccnc(Br)c1F)N1CCc2[nH]nc(C3CCC3)c2C1`, for which the 50% effective concentration (EC50) entry (HepG2.2.15) was “in the range around 300 nM”.

In the case of `O=C(Nc1ccc(F)c(Br)c1)N1CCc2[nH]nc(C3CCC3)c2C1`, the 50% effective concentration (EC50) result (HepG2.2.15) is “in the range around 55 nM”. With `O=C(Nc1cccc(Cl)c1)N1CCc2[nH]nc(Br)c2C1`, the EC50 (HepG2.2.15) is above 10000 nM. Regarding `O=C(Nc1ccc(F)c(Cl)c1)N1CCc2[nH]nc(C3CCC3)c2C1`, the EC50 result (HepG2.2.15) was “in the range around 55 nM”. For `CC1Cc2[nH]nc(C3CCCC3)c2CN1C(=O)Nc1ccc(F)c(C#N)c1` (centres undefined), the half-maximal effective concentration (EC50) entry was “in the range around 55 nM”. The EC50 result (HepG2.2.15) is “in the range around 55 nM”.

The values above are taken from ChEMBL document CHEMBL5727499, “Derivatives and methods of treating hepatitis B infections” (2020).
